A short description of data set [1]: Inhibition of lipid peroxidation (soybean phosphatidylcholine liposomes). The data set is classed as biochemical. Conditions: Fe2+-initiated, 37° C., 15 min time point, TBARS, read-out: LIPID OX (IC50). Here is the method:
1. Inhibition of lipid peroxidation
For determination of the ability to inhibit lipid peroxidation, liposomes were prepared from soybean phosphatidylcholine by ethanol injection. An aliquot of phosphatidylcholine was dried in a small glass vial under N2. The lipid was resolubilized in ethanol at a volume of 10 ml per ml of liposomes. Typically, 8 ml volumes of liposomes were prepared per tube and then all preparations were combined to provide a homogenous mixture for the assay. The ethanol containing the lipid was taken up in a Hamilton syringe and injected into the appropriate volume of 50 mM NaCl/10 mM Tris, pH 7.0 at 37° C. with mixing to achieve a final lipid concentration of 0.563 mM.
The liposomes were added to 25 ml beakers in a Dubnoff metabolic shaker at 37° C. To the liposomes were added the test compound (in ethanol or buffer), histidine-FeCl3 250:[…] final), FeCl2 ([…] final, prepared in N2 purged water) and sufficient buffer to achieve a final lipid concentration of 0.5 mM. Oxidations were initiated by the addition of Fe^2^+ and carried out under an air atmosphere with shaking. One ml aliquots were removed at 0,2,4,6,8,10,12 and 15 min and added to 2 ml of 0.67% thiobarbituric acid : 10% trichloroacetic acid (2:1) in 0.25 N HCl containing 0.05 ml of 2% BHT to terminate oxidation. Thomas, C. E., McLean, L. R., Parker, R. A., and Ohlweiler, D. F. (1992) Lipids 27, 543-550.
The samples were heated at 100° C. for 20 min in 13 x 100 mm borosilicate glass tubes covered with marbles to prevent evaporation. After cooling, the tubes were centrifuged at 3,000 rpm for 10 min and the absorbance of the resultant supernatant read at 532 nm-580 nm. Quantitation of thiobarbituric acid reactive substances (TBARS) was determined by comparison to a standard curve of malondialdehyde equivalents generated by acid catalyzed hydrolysis of 1,1,3,3-tetraethoxypropane. The IC50 was determined using the 15 min time point with the computer program GraphPad INPLOT 4. This program uses a nonlinear regression with sigmoidal curve on a semilogarithmic scale.

Data set [2] is described as follows: OH radical trapping (inhibition of the bleaching of p-NDA, primary assay). Conditions: for IC50: IC50, Fenton chemistry (Fe2+/H2O2), pH 7.0. The data set is classed as biochemical. On the procedure:
2. Assessment as .OH Traps
A. Inhibition of the bleaching of p-NDA
Cyclic nitrones were evaluated for .OH trapping activity by a variety of tests. The primary assay was dependent upon the ability of the compounds to inhibit the .OH-dependent bleaching of p-NDA. Bors, W., Michel, C., and Saran, M. (1979) J. Biochem. 95, 621-627. The p-NDA was prepared at 1 mM in 50 mM NaCl, pH 7.0. The hydroxyl radical was generated using Fenton chemistry (Fe^2+ /H2 O2). FeCl2 is dissolved in N2 purged, double distilled […] to a final concentration of 2.5 mM. H2 O2 was prepared from a 30% stock solution (8.8 M) at 1.25 mM in the buffer. Test compounds were solubilized in buffer or ethanol at a concentration of 1 M or 5 M, depending upon solubility.
Assay mixtures in glass cuvettes contained solutions of 0.02 ml of H2 O2, 0.02 ml of test compound, 0.10 ml of p-NDA and 50 mM NaCl, pH 7.0 to a final volume of 0.98 ml. The oxidation was initiated by the addition of 0.02 ml of Fe^2+ and the bleaching of p-NDA was monitored as the loss in absorbance at 440 nm for 100 sec. To generate concentration curves, serial dilutions of the test compounds were made such that a constant volume of 0.02 ml was added to the reaction mixture. Ethanol itself is an .OH trap, thus controls contained an equal volume of ethanol for any test compound requiring this vehicle. The IC50 values for the nitrones were determined by GraphPad InPlot 4 and represent the amount of spin trap required to inhibit the bleaching of p-NDA by 50%.

Another data set can be described thus: Sedation in rats. The class given is in vivo.
Data set [3] in a line: Duration of in vivo activity of compound A. The arrangement: species or system rats. Conditions: relative to the sedative effect.
For data set [4] the following is noted: compared with PBN; cited from earlier work.
The conditions of data set [5]: compared with PBN; cited from earlier work. The source holds these as a separate data set.
Data set [6] concerns Cerebellar Granule Cells. Kind of data set: Protection of cerebellar granule cells against Fe2+-induced oxidation (TBARS). The data set is classed as cell-based. Conditions: Rattus norvegicus, 0.75 h, read-out: TBARS IC50. Here is the method:
(§1) 3. Protection of cerebellar granule cells against oxidative damage
(§2) The cyclic nitrones were tested for their ability to protect primary cultures of cerebellar granule cells against oxidative injury induced by treatment with Fe^2+. Cerebellar granule cell cultures were prepared from 8 day old rats as previously described. […] Briefly, 8-10 cerebella were removed and placed in a Krebs-Ringer bicarbonate medium supplemented with BSA and MgSO4. Cerebella were finely chopped and digested with a trypsin/Krebs-Ringer solution. Cells were then dispersed by trituration in Krebs-Ringer containing DNase, MgSO4 and trypsin inhibitor followed by plating at a density of 1×10^6 cells/well in poly-l-lysine coated plate in MEM/10% fetal bovine serum/KCl/glutamine/gentamicin. Media was replaced at 24 hours and cytosine arabinoside added. Experiments were conducted with cells 8-10 days in vitro.
(§3) The nitrones were added in either Locke's solution or in 20% β-cyclodextrins and allowed to incorporate into the cells for 30 min. At this time 20 μl of a 5 mM stock solution of ferrous chloride was added for a final concentration of 100 μM. After 45 min the media was removed and added to 1.5 ml of TBA/TCA (2:1) with 25 μl of 2% BHT and TBARS determined as described above. The absorbance of the control cells (no iron) was subtracted from the iron treated cells and this value taken as the denominator to determine the concentration of nitrone required to inhibit oxidation by 50%.

In data set [7] the test system is Cerebellar Granule Cells. Kind of data set: Protection of cerebellar granule cells against Fe2+-induced damage (viability, MTT). The class given is cell-based. Conditions: Rattus norvegicus, read-out: Viability IC50. On the procedure:
as §1, §2, §3
Fresh MEM media was added to the cells along with 100 μl of MTT. After 4 hrs, 1 ml of cold isopropanol/0.04 N HCl was added, the cells scraped, mixed well and transferred to 13×100 mm glass test tubes. The absorbance resulting from mitochondrial reduction of the MTT (570 nm minus 630 nm) was measured as an assessment of viability. The % cell death was determined by comparison to the absorbance of cells to which no iron was added.

Data set [8] is described as follows: Metabolites of A isolated from an in vivo experiment. Conditions: relative to Metabolite 2. From the text: Indeed, from the onset, a primary goal has been to find a potent antioxidant which lacks this side effect observed with compound A. In this regard, the following observations were of special interest. […] In order to investigate this possibility, the major metabolite C and a minor, possibly secondary, metabolite (Metabolite 2) were isolated from an in vivo experiment, purified by HPLC, and assigned the structures shown below (FIG. 3). [drawing 16]

A further data set is described as follows: Solubility. Conditions: for water solubility: noted during work-up. The data set is classed as physicochemical.
Data set [9] relates to neuronal cell loss and neurologic deficits. The following applies: stroke, gerbil model; cited from earlier work.
For data set [10] the following is noted: ESR spectroscopy, gerbils; cited from earlier work.
Data set [11] relates to endotoxin associated mortality. Conditions: rats; cited from earlier work.
For the next data set, the system named is ischemia-induced damage. Conditions: vitamin E supplementation; cited from earlier work.
The subject of a further data set is loss of cell viability. The following applies: prior administration for vitamin E; cited from earlier work.
Setting [12] is: Fe2+-induced damage, 100 μM ferrous chloride, 45 min.
Where [13] appears, read: Fe2+-induced damage, MTT reduction.

SMILES strings stand for the structures.

In general, IC50 refers to the concentration needed to halve the response being measured. For the compound `CC1(C)Cc2ccccc2C=[N+]1[O-]` [A, 3,4-dihydro-3,3-dimethylisoquinoline N-oxide], the half-maximal inhibitory concentration (IC50) in data set [1] came to 1670 µM; in data set [2], 2830 µM. Further, the sedation result in the data set “Sedation in rats” (high doses in rats) is listed as “causes sedation when administered in high doses in rats”. In addition, the “time course of sedative effect” value in “Sedation in rats” (rats) was “peaks and declines rapidly”. For the same compound, the “duration of in vivo activity” value in data set [3] is given as “persists for a considerably longer period of time”. The “inhibition of lipid oxidation relative to PBN” value in data set [4] is “more potent inhibitors of lipid oxidation”. Further, the “hydroxyl radical trapping relative to PBN” value in [5] was “better hydroxyl radical traps”.

Regarding `[O-][N+]1=Cc2ccccc2CC12CCCCC2` [B, spiro [cyclohexane-1,3']3,4-dihydroisoquinoline N-oxide, reference compound], in data set [4], the “inhibition of lipid oxidation relative to PBN” value is “more potent inhibitors of lipid oxidation”. Besides, in data set [5], the “hydroxyl radical trapping relative to PBN” value is given as “better hydroxyl radical traps”.

`CC1(C)C(O)c2ccccc2C=[N+]1[O-]` (centres unmarked) [C, 3,3-Dimethyl-3,4-dihydroisoquinolin-4-ol, N-oxide]: the values for the concentration for half-maximal inhibition (IC50) in the data set with Cerebellar Granule Cells [6] (setting [12]) and in the data set on Cerebellar Granule Cells [7] (setting [13]) were 1900 µM and 1550 µM, respectively. For the same compound, in data set [8], the “abundance of metabolite in vivo” value was “much more abundant in vivo than Metabolite 2”. Besides, in “Solubility”, the water solubility result is on record as “relatively high water solubility”.

As to `CC1(C)Cc2c(ccc3ccccc23)C=[N+]1[O-]` [Compound 9, 2,2-Dimethyl-1,2-dihydrobenzo[f]isoquinoline N-oxide], the concentration for half-maximal inhibition (IC50) in [1] turned out to be 100 µM. Moreover, the solubility result in “Solubility” (reason for OH radical trapping not measured) was “low solubility”.

For `CC1(C)Cc2ccc3ccccc3c2C=[N+]1[O-]` [Compound 10, 3,3-Dimethyl-3,4-dihydrobenzo[h]isoquinoline N-oxide], the IC50 in data set [1] was determined as 69 µM.

Regarding `CC1(C)Cc2ccsc2C=[N+]1[O-]` [Compound 13, 5,5-Dimethyl-4,5-dihydrothieno[2,3-c]pyridine N-oxide], the values for the half-maximal inhibitory concentration (IC50) in data set [1] and in data set [2] were 1720 µM and 4340 µM, respectively.

For the compound `Cc1cc2c(c(C)c1O)CC(C)(C)[N+]([O-])=C2` [Compound 15, 3,3,5,7-Tetramethyl-3,4-dihydroisoquinolin-6-ol N-oxide], the IC50 was 220 µM in the data set with Cerebellar Granule Cells [6] (setting [12]) and 190 µM with Cerebellar Granule Cells [7] (setting [13]).

Regarding `Cc1cc2c(c(C)c1O)CC(C)(C)N=C2` [Compound 38, 3,3,5,7-Tetramethyl-3,4-dihydroisoquinolin-6-ol], in the data set “Solubility”, the water solubility entry is on record as “high water solubility”.

Regarding `CC1(C)Cc2sccc2C=[N+]1[O-]` [Compound 48, 6,6-Dimethyl-6,7-dihydrothieno[3,2-c]pyridine N-oxide], the IC50 came out at 1590 µM in data set [1] and 14400 µM in data set [2].

For the compound `CC1(C)Cc2ccoc2C=[N+]1[O-]` [Compound 53, 5,5-Dimethyl-4,5-dihydrofuro[2,3-c]pyridine N-oxide], in data set [1], the IC50 is 1070 µM. In addition, the “OH RADICAL TRAPPING (effect)” value in data set [2] (at 20 mM) is reported as “no effect”.

On to `CC(=O)OC1c2ccccc2C=[N+]([O-])C1(C)C` (centres unmarked) [Compound 76, 4-Acetoxy-3,3-dimethyl-3,4-dihydroisoquinoline, N-oxide], for which the values for the IC50 with Cerebellar Granule Cells [6] (setting [12]) and in the data set on Cerebellar Granule Cells [7] (setting [13]) were 839 µM and 864 µM, respectively.

For the compound `CC1(C)C(=O)c2ccccc2C=[N+]1[O-]` [Compound 77, 3,3-Dimethyl-3H-isoquinolin-4-one, N-oxide], the results for the IC50 with Cerebellar Granule Cells [6] (setting [12]) and in the data set on Cerebellar Granule Cells [7] (setting [13]) were 830 µM and 385 µM, respectively.

For `[O-][N+]1=Cc2ccccc2C(O)C12CCCCC2` (centres unmarked) [D, 3,4-dihydroisoquinolin-4-ol-3-spirocyclohexane, N-oxide], the 50% inhibitory concentration (IC50) in the data set with Cerebellar Granule Cells [6] (setting [12]) came out at 520 µM; in the data set with Cerebellar Granule Cells [7] (setting [13]), 588 µM.

As to `O=C1c2ccccc2C=[N+]([O-])C12CCCCC2` [E, 3H-isoquinolin-4-one-3-spirocyclohexane, N-oxide], the values for the concentration for half-maximal inhibition (IC50) with Cerebellar Granule Cells [6] (setting [12]) and with Cerebellar Granule Cells [7] (setting [13]) were 37 µM and 39 µM, respectively.

As for `[O-][N+]1=Cc2ccccc2C(O)C12CCCC2` (centres unmarked) [F, 3,4-dihydroisoquinolin-4-ol-3-spirocyclopentane, N-oxide], the IC50 with Cerebellar Granule Cells [6] (setting [12]) was found to be 771 µM; in the data set on Cerebellar Granule Cells [7] (setting [13]) it was 817 µM.

With `O=C1c2ccccc2C=[N+]([O-])C12CCCC2` [G, 3H-isoquinolin-4-one-3-spirocyclopentane, N-oxide], the half-inhibitory concentration (IC50) in the data set on Cerebellar Granule Cells [6] (setting [12]) stood at 102 µM; in the data set on Cerebellar Granule Cells [7] (setting [13]) it was 105 µM.

With `CC(C)(C)[N+]([O-])=Cc1ccccc1` [PBN, alpha-phenyl-tert-butyl nitrone], the IC50 in the data set with Cerebellar Granule Cells [6] and with Cerebellar Granule Cells [7] was 2600 µM each time. In addition, the “effect on neuronal cell loss and neurologic deficits” value in [9] is “can significantly ameliorate neuronal cell loss and neurologic deficits”. The “trapping of lipid-derived radicals in cortical tissue” value in [10] was “trap lipid-derived radicals in cortical tissue”. In addition, the “reduction of endotoxin associated mortality” value in [11] was “reduce endotoxin associated mortality in rats”.

For the compound `Cc1c(C)c2c(c(C)c1O)CCC(C)(CCCC(C)CCCC(C)CCCC(C)C)O2` (stereo not drawn) [vitamin E, α-tocopherol], the “protective effect against ischemia-induced damage” value in the data set with ischemia-induced damage is listed as “some protective effect”. In addition, in the data set with loss of cell viability, the “protection against loss of cell viability” value is on record as “partial protection”.

(Values after patent publication US5962469A, “Cyclic nitrones” (Hoechst Marion Roussel Inc., priority 1997, dated 1999).)
